For series [1] the following is noted: Liquid; for mass density: 293.15 K, 101.33 kPa, Vibrating tube method; for Normal boiling temperature: Ebulliometric method (Recirculating still).
A short description of series [2]: refractive index (Na D-line) (dimensionless). To be noted: 293.15 K; 101.33 kPa; Liquid; Standard Abbe refractometry.

Numbers after ± are expanded uncertainties.

The mass density is the mass of a sample divided by its volume. One may read the refractive index as a measure of how strongly the sample bends light. Turning to `CC#N` [acetonitrile], in series [1], the mass density was 782.1 ± 1 kg/m3 and the Normal boiling temperature came to 81.44 ± 0.3 °C. The refractive index in series [2] is recorded as 1.3439 ± 0.0004.
For `CO` [methanol], in series [1], the mass density is 791.1 ± 1 kg/m3 and the Normal boiling temperature was 64.41 ± 0.3 °C. In addition, the refractive index in series [2] is reported as 1.3283 ± 0.0004.

(Values after the NIST ThermoML archive (doi:10.1016/j.jct.2016.05.011).)
